Measured values published in patent publication US9914733B2, “Biisoquinoline compounds and methods of treatment” (UNIVERSITY OF FLORIDA RESEARCH FOUNDATION, priority 2014, dated 2018).
pIC50: −log10 of the molar value. Read-outs that look alike come from different tables or passages of the source.

Legend:
MCF7 cells = assay: Clonogenic cell growth inhibition assay, MCF7; format: cell-based, human; conditions: for pIC50: Homo sapiens, MCF7 triple-positive breast cancer cells, 48 h treatment, colonies counted after additional 10 days, read-out: IC50, drug concentration required for 50% growth inhibition
Experimental: (§1) The following human breast cancer cell lines were used in these studies: (a) Triple-positive: BT474, MCF7 and T47D, (b) Triple-negative: MDA-MB231 and MDA-MB468. Cells were grown in the following medium at 37° C. under a humidified atmosphere of 5% CO2: DMEM (BT474 cells), RPMI (MCF7 and T47D cells) and MEM (MDA-MB231 and MDA-MB468 cells). For each cell line, the medium was supplemented with 10% fetal bovine serum (Hyclone, Logan, Utah) 100 U/ml of penicillin, and 100 μg/ml of streptomycin.
(§2) Cells were trypsinized and a single cell suspension was prepared. Cells were plated at a density of 5×10^2-1×10^3 cells in 60 mm tissue culture plates. After the attachment, cells were treated with different concentrations of biisoquinolines 1a-d for 48 h. After the treatment, medium containing drug was removed and supplemented with fresh medium. Cells were allowed to grow into colonies for additional 10 days. Colonies were fixed, stained with 0.3% (w/v) methylene blue, and excess of the dye was removed after washing with PBS. Colonies containing more than fifty cells were counted and the IC50 values, i.e., drug concentrations required for 50% growth inhibition of these cell lines were determined as described in our previous studies. [Balusu, R.; Jaiswal, A. S.; Armas, M. L.; Kundu, C. N.; Bloom L, B.; Narayan S. Biochemistry 2007, 46, 13961; Jaiswal, A, S.; Banerjee, S.; Panda, H.; Bulkini, C. D.; Izumi, T.; Sarkar, F. H.; Ostrov, D. A.; Narayan, S. Mol. Cancer Res. 2009, 7, 1973] The IC50 of each compound was determined from the survival curve using the SigmaPlot-10.0 software program.

MDA-MB468 cells = assay: Clonogenic cell growth inhibition assay, MDA-MB468; format: cell-based; conditions: Homo sapiens, MDA-MB-468; MDA-MB468 triple-negative breast cancer cells; 48 h treatment, colonies counted after additional 10 days; read-out: IC50, drug concentration required for 50% growth inhibition
Experimental: as §1, §2

BT474 cells = assay: Clonogenic cell growth inhibition assay, BT474; format: cell-based; conditions: Homo sapiens, BT-474; BT474 triple-positive breast cancer cells; 48 h treatment, colonies counted after additional 10 days; read-out: IC50, drug concentration required for 50% growth inhibition
Experimental: as §1, §2

T47D cells = assay: Clonogenic cell growth inhibition assay, T47D; format: cell-based, human; conditions: for pIC50: Homo sapiens, T47D triple-positive breast cancer cells, 48 h treatment, colonies counted after additional 10 days, read-out: IC50, drug concentration required for 50% growth inhibition
Experimental: as §1, §2

MDA-MB231 cells = assay: Clonogenic cell survival / cell growth inhibition assay, MDA-MB231; format: cell-based, human; conditions: for toxicity to cells (result in words): MDA-MB231 cells, clonogenic assay; for pIC50: 48 h treatment, colonies counted after additional 10 days, read-out: IC50, drug concentration required for 50% growth inhibition
Experimental: as §1, §2
6,6′,7,7′-tetramethoxy biisoquinoline-imidazolium 1a, as well as its precursor compounds, bisamide 3a, and diimine 4a, were tested for the growth inhibitory effect on MDA-MB-231 cells by using the clonogenic cell survival assay [Balusu, R.; Jaiswal, A. S.; Armas, M. L.; Kundu, C. N.; Bloom L, B.; Narayan S. Biochemistry 2007, 46, 13961; Jaiswal, A, S.; Banerjee, S.; Panda, H.; Bulkin, C. D.; Izumi, T.; Sarkar, F. H.; Ostrov, D. A.; Narayan, S. Mol. Cancer Res. 2009, 7, 1973]. […] Then, three other methoxylated biisoquinoline-imidazolium compounds (1b-d) were tested to probe the optimal methoxy substitution pattern.

[1] = Homo sapiens, MDA-MB-231, MDA-MB231 triple-negative breast cancer cells
[2] = MDA-MB231 triple-negative breast cancer cells

Compound: COc1cccc(CCNC(=O)C(=O)NCCc2cccc(OC)c2OC)c1OC [3b, N^1,N^2-bis(2,3-dimethoxyphenethyl)oxalamide]
- sensitivity of cells to the compound (result in words) (MCF7 cells; MCF7 cells, clonogenic assay): resistant
- pIC50 (MDA-MB468 cells): 4.45
- pIC50 (BT474 cells): 4.47
- sensitivity of cells to the compound (result in words) (T47D cells; T47D cells, clonogenic assay): resistant
- toxicity to cells (result in words) (MDA-MB231 cells): did not show any cytotoxicity

Compound: COc1ccc2c(c1OC)CCn1c[n+]3c(c1-2)-c1ccc(OC)c(OC)c1CC3 [1b, 3,3′,4,4′-tetramethoxy-5,6,8,9-tetrahydro-6a,7a-diazadibenzo[c,g]fluorenium]chloride]
- pIC50 (MCF7 cells): 5.10
- pIC50 (MDA-MB468 cells): 5.68
- pIC50 (BT474 cells): 6.15
- pIC50 (T47D cells): 4.87
- pIC50 (MDA-MB231 cells; [1]): 4.74
- pIC50 (MDA-MB231 cells; [2]): 4.85

Compound: COc1ccc2c(c1)CCn1c[n+]3c(c1-2)-c1ccc(OC)cc1CC3 [1c, 3,3′-dimethoxy-5,6,8,9-tetrahydro-6a,7a-diazadibenzo[c,g]fluorenium]chloride]
- pIC50 (MCF7 cells): 5.89
- pIC50 (MDA-MB468 cells): 5.74
- pIC50 (BT474 cells): 6.52
- pIC50 (T47D cells): 6.00
- pIC50 (MDA-MB231 cells; [1]): 5.33
- pIC50 (MDA-MB231 cells; [2]): 5.62

Compound: COc1cc2c(c(OC)c1OC)CCn1c[n+]3c(c1-2)-c1cc(OC)c(OC)c(OC)c1CC3.[Cl-] [1d, 2,2′,3,3′,4,4′-hexamethoxy-5,6,8,9-tetrahydro-6a,7a-diazadibenzo[c,g]fluorenium]chloride]
- toxicity to cells (result in words) (MDA-MB231 cells): did not show any toxicity

Compound: COc1ccc2c(c1OC)C(=O)O[C@@H]2[C@H]1c2c(cc3c(c2OC)OCO3)CCN1C [noscapine, reference compound]
- pIC50 (MCF7 cells): 4.24
- fold higher IC50 than compound 1c (MCF7 cells; MCF7 cells, IC50 of noscapine relative to IC50 of 1c): 44 folds
- pIC50 (MDA-MB231 cells; [1]): 4.19
- fold higher IC50 than compound 1c (MDA-MB231 cells; MDA-MB-231 cells, IC50 of noscapine relative to IC50 of 1c): 16 folds

Compound: COc1cc2c(cc1OC)C(C1=NCCc3cc(OC)c(OC)cc31)=NCC2 [4a, 6,6′,7,7′-tetramethoxy-3,3′,4,4′-tetrahydro-1,1′-biisoquinoline]
- toxicity to cells (result in words) (MDA-MB231 cells): non-toxic

Compound: COc1cc2c(cc1OC)-c1c3[n+](cn1CC2)CCc1cc(OC)c(OC)cc1-3 [1a, 2,2′,3,3′-tetramethoxy-5,6,8,9-tetrahydro-6a,7a-diazadibenzo[c,g]fluorenium]chloride]
- pIC50 (MCF7 cells): 4.46
- pIC50 (MDA-MB468 cells): 5.59
- pIC50 (BT474 cells): 5.51
- pIC50 (T47D cells): 4.47
- pIC50 (MDA-MB231 cells; [1]): 4.72
- pIC50 (MDA-MB231 cells; [2]): 4.68
